ChEMBL document CHEMBL2062441, “An Orally Available 3-Ethoxybenzisoxazole Capsid Binder with Clinical Activity against Human Rhinovirus” (ACS Med Chem Lett, 2012)
In brackets after ≈: the same amount, converted by molar mass.

Assays:
rhinovirus A2 = assay: Antirhinoviral activity against Human rhinovirus 2 infected in human HeLa cells assessed as inhibition of virus-induced cytopathic effect after 5 days by MTT assay; format: functional, organism-based; conditions: Rhinovirus A, 120 h
Human rhinovirus sp. [1] = assay: Antirhinoviral activity against Human rhinovirus 14 infected in human HeLa cells assessed as inhibition of virus-induced cytopathic effect after 5 days by MTT assay; format: functional, organism-based; conditions: Human rhinovirus sp., 14, HeLa, 120 h
Human rhinovirus sp. [2] = assay: Antirhinoviral activity against antiviral-resistant Human rhinovirus A infected in human HeLa cells assessed as inhibition of virus-induced cytopathic effect after 5 days by MTT assay; format: functional, organism-based; conditions: 120 h
Human rhinovirus sp. [3] = assay: Ratio of EC50 for major receptor-resistant Human rhinovirus B to EC50 for minor receptor-resistant Human rhinovirus A; format: functional
Human rhinovirus sp. [4] = assay: Antirhinoviral activity against major receptor-resistant Human rhinovirus infected in human HeLa cells assessed as inhibition of virus-induced cytopathic effect after 5 days by MTT assay; format: functional, organism-based; conditions: 120 h
Human rhinovirus sp. [5] = assay: Ratio of EC50 for antiviral-resistant Human rhinovirus B to EC50 for antiviral-resistant Human rhinovirus A; format: functional
Human rhinovirus sp. [6] = assay: Antirhinoviral activity against antiviral-resistant Human rhinovirus B infected in human HeLa cells assessed as inhibition of virus-induced cytopathic effect after 5 days by MTT assay; format: functional, organism-based; conditions: 120 h
Human rhinovirus sp. [7] = assay: Ratio of EC50 for Human rhinovirus B to EC50 for Human rhinovirus A; format: functional
Human rhinovirus sp. [8] = assay: Antirhinoviral activity against minor receptor-resistant Human rhinovirus infected in human HeLa cells assessed as inhibition of virus-induced cytopathic effect after 5 days by MTT assay; format: functional, organism-based; conditions: 120 h
Human rhinovirus sp. [9] = assay: Antirhinoviral activity against Human rhinovirus B infected in human HeLa cells assessed as inhibition of virus-induced cytopathic effect after 5 days by MTT assay; format: functional, organism-based; conditions: 120 h
Human rhinovirus sp. [10] = assay: Antirhinoviral activity against Human rhinovirus A infected in human HeLa cells assessed as inhibition of virus-induced cytopathic effect after 5 days by MTT assay; format: functional, organism-based; conditions: 120 h
[11] = Half life in human at 400 mg administered as single dose; conditions: in vivo
[12] = Half life in female beagle dog at 50 mg/kg, po; conditions: in vivo
in vivo [13] = conditions: female, beagle, dog, po, 50 mg/kg
Description: Cmax in female beagle dog at 50 mg/kg, po

in vivo [14] = conditions: female, Lister hooded, rat, plasma, po, 50 mg/kg
Description: AUC in female lister hooded rat at 50 mg/kg, po

in vivo [15] = conditions: male, Lister hooded, rat, po, 50 mg/kg
Description: Tmax in male lister hooded rat at 50 mg/kg, po

in vivo [16] = conditions: male, Lister hooded, rat, po, 50 mg/kg; remark: listed apart in the source
Description: Oral bioavailability in male lister hooded rat at 50 mg/kg administered as single dose

in vivo [17] = conditions: female, Lister hooded, rat, po, 50 mg/kg
Description: Oral bioavailability in female lister hooded rat at 50 mg/kg administered as single dose

[18] = Half life in male beagle dog at 50 mg/kg, po; conditions: in vivo
in vivo [19] = conditions: male, Lister hooded, rat, po, 50 mg/kg; remark: listed apart in the source
Description: Cmax in male lister hooded rat at 50 mg/kg, po

in vivo [20] = conditions: male, beagle, dog, po, 50 mg/kg
Description: Tmax in male beagle dog at 50 mg/kg, po

in vivo [21] = conditions: male, Lister hooded, rat, plasma, po, 50 mg/kg
Description: AUC in male lister hooded rat at 50 mg/kg, po

[22] = Half life in female lister hooded rat at 50 mg/kg, po; conditions: in vivo
in vivo [23] = conditions: male, beagle, dog, plasma, po, 50 mg/kg
Description: AUC in male beagle dog at 50 mg/kg, po

in vivo [24] = conditions: female, beagle, dog, plasma, po, 50 mg/kg
Description: AUC in female beagle dog at 50 mg/kg, po

in vivo [25] = conditions: female, beagle, dog, po, 50 mg/kg; remark: listed apart in the source
Description: Tmax in female beagle dog at 50 mg/kg, po

in vivo [26] = conditions: male, beagle, dog, po, 50 mg/kg; remark: listed apart in the source
Description: Cmax in male beagle dog at 50 mg/kg, po

[27] = Cmax in human at 400 mg administered as single dose; conditions: in vivo
[28] = AUC (0 to infinity) in human at 400 mg administered as single dose; conditions: plasma
in vivo [29] = conditions: female, Lister hooded, rat, po, 50 mg/kg; remark: listed apart in the source
Description: Tmax in female lister hooded rat at 50 mg/kg, po

[30] = Tmax in human at 400 mg administered as single dose; conditions: in vivo
[31] = Half life in male lister hooded rat at 50 mg/kg, po; conditions: in vivo
in vivo [32] = conditions: female, Lister hooded, rat, po, 50 mg/kg; remark: listed apart in the source
Description: Cmax in female lister hooded rat at 50 mg/kg, po

Q: Which EC50 (rhinovirus A2) does the source give for CCc1noc2cc(OCCC3CCN(c4ccc(C)nn4)CC3)ccc12 here?
A: 24 ng/mL (≈ 0.0655 µM)

Q: What about the EC50 (Human rhinovirus sp. [1]) of the same molecule?
A: 88 ng/mL (≈ 0.24 µM)

Q: Which results are given for CCOc1noc2cc(OCCC3CCN(c4ccc(Cl)nn4)CC3)ccc12?
A: EC50 (rhinovirus A2): 3 ng/mL (≈ 0.00745 µM); EC50 (Human rhinovirus sp. [1]): 19 ng/mL (≈ 0.0472 µM)

Q: With CCCOc1noc2cc(OCCC3CCN(c4ccc(C)nn4)CC3)ccc12 as the molecule, how does the EC50 (rhinovirus A2) read?
A: 3 ng/mL (≈ 0.00757 µM)

Q: What about the EC50 (Human rhinovirus sp. [1]) of the same molecule?
A: 29 ng/mL (≈ 0.0731 µM)

Q: What does the source list for CCCc1noc2cc(OCCC3CCN(c4ccc(C)nn4)CC3)ccc12?
A: EC50 (rhinovirus A2): 84 ng/mL (≈ 0.221 µM); EC50 (Human rhinovirus sp. [1]): 13 ng/mL (≈ 0.0342 µM)

Q: Which EC50 (rhinovirus A2) does the source give for CCOc1nsc2cc(OCCC3CCN(c4ccc(C)nn4)CC3)ccc12 here?
A: 3 ng/mL (≈ 0.00753 µM)

Q: And the EC50 (Human rhinovirus sp. [1])?
A: 29 ng/mL (≈ 0.0728 µM)

Q: Which EC50 (rhinovirus A2) does the source give for CCOc1noc2cc(OCCCC3CCN(c4ccc(Cl)nn4)CC3)ccc12 here?
A: 3 ng/mL (≈ 0.0072 µM)

Q: What about the EC50 (Human rhinovirus sp. [1]) of the same molecule?
A: 9 ng/mL (≈ 0.0216 µM)

Q: With CCOC(=O)c1ccc(OCCC2CCN(c3ccc(C)nn3)CC2)cc1 [PIRODAVIR] as the molecule, how does the EC50 (rhinovirus A2) read?
A: 3 ng/mL (≈ 0.00812 µM)

Q: What about the EC50 (Human rhinovirus sp. [2]) of the same molecule?
A: 20.6 ng/mL (≈ 0.0558 µM)

Q: What about the “Ratio EC50” value (Human rhinovirus sp. [3]) of the same molecule?
A: 2.4

Q: And the EC50 (Human rhinovirus sp. [4])?
A: 5.6 ng/mL (≈ 0.0152 µM)

Q: And the “Ratio EC50” value (Human rhinovirus sp. [5])?
A: 8.1

Q: What about the EC50 (Human rhinovirus sp. [6]) of the same molecule?
A: 2.6 ng/mL (≈ 0.00704 µM)

Q: And the “Ratio EC50” value (Human rhinovirus sp. [7])?
A: 2.8

Q: And the EC50 (Human rhinovirus sp. [1])?
A: 4 ng/mL (≈ 0.0108 µM)

Q: What about the EC50 (Human rhinovirus sp. [8]) of the same molecule?
A: 2.3 ng/mL (≈ 0.00623 µM)

Q: What about the EC50 (Human rhinovirus sp. [9]) of the same molecule?
A: 11.1 ng/mL (≈ 0.03 µM)

Q: What about the EC50 (Human rhinovirus sp. [10]) of the same molecule?
A: 4 ng/mL (≈ 0.0108 µM)

Q: What does the source list for Cc1cc(CCCOc2c(C)cc(-c3noc(C(F)(F)F)n3)cc2C)on1 [PLECONARIL]?
A: EC50 (Human rhinovirus sp. [2]): 388 ng/mL (≈ 1.02 µM); Ratio EC50 (Human rhinovirus sp. [3]): 2.1; EC50 (Human rhinovirus sp. [4]): 49.2 ng/mL (≈ 0.129 µM); Ratio EC50 (Human rhinovirus sp. [5]): 11.5; EC50 (Human rhinovirus sp. [6]): 33.8 ng/mL (≈ 0.0886 µM); Ratio EC50 (Human rhinovirus sp. [7]): 6; EC50 (Human rhinovirus sp. [8]): 23.2 ng/mL (≈ 0.0608 µM); EC50 (Human rhinovirus sp. [9]): 224 ng/mL (≈ 0.588 µM); EC50 (Human rhinovirus sp. [10]): 37.4 ng/mL (≈ 0.0981 µM)

Q: Which results are given for CCOC(=O)/C=C/[C@H](C[C@@H]1CCNC1=O)NC(=O)[C@@H](CC(=O)[C@@H](NC(=O)c1cc(C)on1)C(C)C)Cc1ccc(F)cc1 [RUPINTRIVIR]?
A: EC50 (Human rhinovirus sp. [2]): 1.2 ng/mL (≈ 0.002 µM); Ratio EC50 (Human rhinovirus sp. [3]): 2; EC50 (Human rhinovirus sp. [4]): 1.5 ng/mL (≈ 0.00251 µM); Ratio EC50 (Human rhinovirus sp. [5]): 1.7; EC50 (Human rhinovirus sp. [6]): 2 ng/mL (≈ 0.00334 µM); Ratio EC50 (Human rhinovirus sp. [7]): 1.7; EC50 (Human rhinovirus sp. [8]): 3 ng/mL (≈ 0.00501 µM); EC50 (Human rhinovirus sp. [9]): 1.2 ng/mL (≈ 0.002 µM); EC50 (Human rhinovirus sp. [10]): 2 ng/mL (≈ 0.00334 µM)

Q: Which results are given for CCOc1noc2cc(OCCC3CCN(c4ccc(C)nn4)CC3)ccc12 [VAPENDAVIR]?
A: EC50 (rhinovirus A2): 1 ng/mL (≈ 0.00261 µM); half-life [11]: 11.8 h; half-life [12]: 15.9 h; Cmax (in vivo [13]): 6100 ng/mL; AUC (in vivo [14]): 489 µg·h/mL; Tmax (in vivo [15]): 16 h; bioavailability (in vivo [16]): 94%; bioavailability (in vivo [17]): 95%; half-life [18]: 18.3 h; Cmax (in vivo [19]): 22500 ng/mL; Tmax (in vivo [20]): 14.7 h; AUC (in vivo [21]): 483 µg·h/mL; half-life [22]: 46.4 h; AUC (in vivo [23]): 202 µg·h/mL; AUC (in vivo [24]): 121 µg·h/mL; Tmax (in vivo [25]): 7.7 h; Cmax (in vivo [26]): 11000 ng/mL; Cmax [27]: 1890 ng/mL; AUC(0-inf) [28]: 13.8 µg·h/mL; Tmax (in vivo [29]): 11.2 h; Tmax [30]: 1.03 h; half-life [31]: 51.6 h; Cmax (in vivo [32]): 17700 ng/mL
